EC50 and IC50 data for 14 compounds are collected here from US20100303758A1, “Novel Glucocorticoid Receptor Agonists” (priority 2009, published 2010).

The target of assay [1] is T1, human GR (Homo sapiens, UniProt P04150).
T1 construct: SW1353 naturally expresses human GR; endogenous in cells; host or cells: human chondrosarcoma cell-line SW1353 stably transfected with an MMTV-luciferase reporter construct
T1 sequence (P04150 1-777): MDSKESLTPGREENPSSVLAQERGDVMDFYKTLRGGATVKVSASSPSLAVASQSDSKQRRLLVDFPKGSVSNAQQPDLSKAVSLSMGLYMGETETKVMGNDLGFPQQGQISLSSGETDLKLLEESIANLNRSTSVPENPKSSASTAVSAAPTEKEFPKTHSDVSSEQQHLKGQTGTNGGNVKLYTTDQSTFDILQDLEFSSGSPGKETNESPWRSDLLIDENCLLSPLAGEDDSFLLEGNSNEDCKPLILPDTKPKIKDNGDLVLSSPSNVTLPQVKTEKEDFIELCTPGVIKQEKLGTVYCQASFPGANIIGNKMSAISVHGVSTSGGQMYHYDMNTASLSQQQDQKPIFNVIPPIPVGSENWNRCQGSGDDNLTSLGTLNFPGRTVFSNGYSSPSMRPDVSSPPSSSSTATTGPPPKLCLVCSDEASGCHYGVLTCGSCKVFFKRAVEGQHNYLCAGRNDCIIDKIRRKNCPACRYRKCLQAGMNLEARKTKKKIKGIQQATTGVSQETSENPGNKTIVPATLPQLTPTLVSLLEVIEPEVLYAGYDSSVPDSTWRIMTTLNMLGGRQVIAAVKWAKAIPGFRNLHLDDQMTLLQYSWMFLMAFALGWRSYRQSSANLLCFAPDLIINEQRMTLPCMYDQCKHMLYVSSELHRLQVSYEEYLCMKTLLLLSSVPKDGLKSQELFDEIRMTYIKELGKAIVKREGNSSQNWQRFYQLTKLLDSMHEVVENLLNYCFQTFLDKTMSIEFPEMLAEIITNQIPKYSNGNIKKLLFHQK
The assay is described as follows: GR agonist potency, MMTV-luciferase reporter in SW1353 cells. The class given is cell-based. As to conditions: human chondrosarcoma cell-line SW1353 stably transfected with MMTV-luciferase reporter; approx. 18 hours; data as percentage of 1 μM dexamethasone positive control. As to the method:
Glucococorticoid receptor (GR) agonist potency was determined in the human chondrosarcoma cell-line SW1353 stably transfected with an MMTV-luciferase reporter construct. SW1353 naturally expresses human GR, which on binding a glucocorticoid agonist activates glucocorticoid response elements within the MMTV promoter, driving expression of the luciferase gene.
Frozen SW1353 cells were revived in DMEM medium, without sodium pyruvate or phenol red, supplemented with 2 mM L-glutamine, 1 μg/ml insulin, 2 mg/ml lactalbumin hydrosylate and 0.5 μg/ml ascorbate. Cells were seeded at approximately 5000 cells/well (35 μl/well) in 384-well clear bottom, tissue culture treated plates. Steroid dose-response dilutions were prepared in steroid diluent (PBS containing 2.5% (v/v) DMSO and 0.05% (v/v) pluronic detergent) and 5 μl added to each well. The volume was made up to 50 μl per well with steroid diluent. Positive control wells contained 1 μM dexamethasone. Plates were incubated for approximately 18 hours at 37° C. in an air/5% CO2 atmosphere in a humidified incubator before Britelite reagent (10 μl; Perkin-Elmer) was added to each well. Each plate was incubated for 2 minutes in the dark and luminescence quantified using a LJL Biosystems Analyst luminometer. Data for test compounds (expressed as percentage of the dexamethasone positive control) were used to construct dose response curves from which EC50 values were estimated.
On the technique in general: In a reporter assay the amount or activity of a reporter protein is the signal.

Assay [2] is described as follows: Inhibition of TNF-α release from LPS stimulated isolated human PBMC. As to conditions: Homo sapiens, PBMC, read-out: IC50 (nM) for inhibition of TNF-α release. Format: cell-based. As to the method:
The anti-inflammatory activity of the compounds against human leukocytes in vitro was also evaluated by determining inhibition of tumour necrosis factor-α (TNF-α) release from lipopolysaccharide (LPS) stimulated isolated human peripheral mononuclear cells (PBMC).
Peripheral venous blood from healthy, non-medicated donors was collected using ethylenediaminetetraacetic acid (EDTA) as the anti-coagulant. For PBMC preparation, samples of blood were diluted 1:1 with sterile phosphate buffered saline and then separated using ACCUSPIN™ System-Histopaque®-1077 tubes (Sigma-Aldrich, St Louis, Mo.), centrifuged at 400 g for 35 minutes. Buffy coat cells were removed into PBS, centrifuged at 200 g for 10 minutes and re-suspended in PBMC assay buffer (Hanks Balanced Salt Solution, 0.28% [w/v] 4-[2-hydroxyethyl]-1-piperazineethanesulfonic acid [HEPES], 0.01% [w/v] low-endotoxin bovine serum albumin [BSA]. A differential white cell count was performed and PBMC's diluted to 1×10^6 lymphocytes per ml in PBMC assay buffer.
Test compounds were dissolved in DMSO and diluted in PBMC assay buffer (final DMSO concentration 1%) to cover an appropriate concentration range, e.g 0.001 nM to 10000 nM. Samples of test compound solution or vehicle (20 μl) were added into 96-well tissue culture treated plates (Corning) and PBMC (160 μl) added to each well. The assay mixtures were incubated at 37° C. for 1 h in a humidified incubator containing an atmosphere of air supplemented with 5% CO2 before adding LPS (20 μl of 100 ng/ml for PBMC). Plates were returned to the incubator for a further 18 hours, and then centrifuged before recovery of samples of supernatant. TNF-α in the samples was determined using an enzyme-linked immunosorbent assay (ELISA) (Invitrogen kit no CHC-1754; Invitrogen Carlsbad, Calif.) and following the manufacturers instructions. Dose response curves were constructed from which IC50 values were calculated.

The term EC50 denotes the midpoint of the concentration-response curve. A word on the IC50: it is the concentration that inhibits the measured activity by half. With `C[C@]12C=CC(=O)C=C1CC[C@H]1[C@@H]3CC[C@](OC(=O)c4ccc(Oc5ccc(O)cc5)cc4)(C(=O)OCC#N)[C@@]3(C)C[C@H](O)[C@@]12F` [Example 16, cyanomethyl (11beta,17alpha)-9-fluoro-11-hydroxy-17-{[4-(4-hydroxyphenoxy)benzoyl]oxy}-3-oxoandrosta-1,4-diene-17-carboxylate], the response in assay [1] was half-maximal at 24 nM (EC50). In assay [2], the IC50 was determined as 0.067 nM.
For `C[C@]12C=CC(=O)C=C1CC[C@H]1[C@@H]3CC[C@](OC(=O)c4ccc(Oc5cccc(O)c5)cc4)(C(=O)OCC#N)[C@@]3(C)C[C@H](O)[C@@]12F` [Example 17, cyanomethyl (11beta,17alpha)-9-fluoro-11-hydroxy-17-{[4-(3-hydroxyphenoxy)benzoyl]oxy}-3-oxoandrosta-1,4-diene-17-carboxylate] the same measures were 37.9 nM and 0.157 nM.
On the same counts, the results for `C[C@]12C=CC(=O)C=C1CC[C@H]1[C@@H]3CC[C@](OC(=O)c4ccc(Sc5ccccc5)c(O)c4)(C(=O)OCC#N)[C@@]3(C)C[C@H](O)[C@@]12F` [Example 19, cyanomethyl (11beta,17alpha)-9-fluoro-11-hydroxy-17-{[3-hydroxy-4-(phenylthio)benzoyl]oxy}-3-oxoandrosta-1,4-diene-17-carboxylate] are 44.8 nM and 0.3 nM.
For `C[C@]12C=CC(=O)C=C1CC[C@H]1[C@@H]3CC[C@](OC(=O)c4ccc(Sc5ccc(O)c(Cl)c5)cc4)(C(=O)OCC#N)[C@@]3(C)C[C@H](O)[C@@]12F` [Example 20, cyanomethyl (11beta,17alpha)-17-({4-[(3-chloro-4-hydroxyphenyl)thio]-benzoyl}oxy)-9-fluoro-11-hydroxy-3-oxoandrosta-1,4-diene-17-carboxylate] the same measures were 39.2 nM and 0.29 nM.
`C[C@]12C=CC(=O)C=C1CC[C@H]1[C@@H]3CC[C@](OC(=O)c4ccc(Oc5ccccc5)cc4O)(C(=O)OCC#N)[C@@]3(C)C[C@H](O)[C@@]12F` [Example 21, cyanomethyl(11beta,17alpha)-9-fluoro-11-hydroxy-17-[(2-hydroxy-4-phenoxybenzoyl)oxy]-3-oxoandrosta-1,4-diene-17-carboxylate]: the EC50 in assay [1] amounted to 49 nM. For the same compound, the IC50 in assay [2] turned out to be 0.656 nM.
`C[C@]12C=CC(=O)C=C1CC[C@H]1[C@@H]3CC[C@](OC(=O)c4ccc(Cc5ccccc5)cc4)(C(=O)SCF)[C@@]3(C)C[C@H](O)[C@@]12F` [Example 22, (11beta,17alpha)-9-fluoro-17-{[(fluoromethyl)thio]carbonyl}-11-hydroxy-3-oxoandrosta-1,4-dien-17-yl 4-benzylbenzoate] had an EC50 in assay [1] of 69.9 nM. In addition, in assay [2], the IC50 amounted to 0.087 nM.
In the case of `CSc1cccc(Sc2ccc(C(=O)O[C@]3(C(=O)SCF)CC[C@H]4[C@@H]5CCC6=CC(=O)C=C[C@]6(C)[C@@]5(F)[C@@H](O)C[C@@]43C)cc2)c1` [Example 23, (11beta,17alpha)-9-fluoro-17-{[(fluoromethyl)thio]carbonyl}-11-hydroxy-3-oxoandrosta-1,4-dien-17-yl 4-{[3-(methylthio)phenyl]thio}benzoate], the concentration giving a half-maximal response (EC50) in assay [1] was found to be 52.5 nM. In addition, in assay [2], the IC50 turned out to be 0.536 nM.
On the same counts, the results for `C[C@]12C=CC(=O)C=C1CC[C@H]1[C@@H]3CC[C@](OC(=O)c4ccc(Sc5ccccc5)cc4)(C(=O)SCF)[C@@]3(C)C[C@H](O)[C@@]12F` [Example 24, (11beta,17alpha)-9-fluoro-17-{[(fluoromethyl)thio]carbonyl}-11-hydroxy-3-oxoandrosta-1,4-dien-17-yl 4-(phenylthio)benzoate] are 25.8 nM and 0.117 nM.
With `C[C@]12C=CC(=O)C=C1CC[C@H]1[C@@H]3CC[C@](OC(=O)c4ccc(Oc5ccccc5)cc4)(C(=O)SCF)[C@@]3(C)C[C@H](O)[C@@]12F` [Example 25, (11beta, 17alpha)-9-fluoro-17-{[(fluoromethyl)thio]carbonyl}-11-hydroxy-3-oxoandrosta-1,4-dien-17-yl 4-phenoxybenzoate], the EC50 in assay [1] amounted to 19.8 nM. In addition, the half-maximal inhibitory concentration (IC50) in assay [2] was determined as 0.026 nM.
For `C[C@]12C=CC(=O)C=C1CC[C@H]1[C@@H]3CC[C@](OC(=O)c4ccc(Oc5ccc(O)c(Cl)c5)cc4)(C(=O)SCF)[C@@]3(C)C[C@H](O)[C@@]12F` [Example 26, (11beta, 17alpha)-9-fluoro-17-{[(fluoromethyl)thio]carbonyl}-11-hydroxy-3-oxoandrosta-1,4-dien-17-y1 4-(3-chloro-4-hydroxyphenoxy)-benzoate] the same measures were 42.6 nM and 0.177 nM.
For `C[C@]12C=CC(=O)C=C1CC[C@H]1[C@@H]3CC[C@](OC(=O)c4ccc(Sc5ccc(O)c(Cl)c5)cc4)(C(=O)SCF)[C@@]3(C)C[C@H](O)[C@@]12F` [Example 27, (11beta,17alpha)-9-fluoro-17-[((fluoromethyl)thio]carbonyl)-11-hydroxy-3-oxoandrosta-1,4-dien-17-yl 4-[(3-chloro-4-hydroxyphenyl)thio]benzoate] the same measures were 43.3 nM and 0.326 nM.
`C[C@]12C=CC(=O)C=C1CC[C@H]1[C@@H]3CC[C@](OC(=O)c4ccc(Sc5ccccc5)cc4)(C(=O)SCC#N)[C@@]3(C)C[C@H](O)[C@@]12F` [Example 28, (11beta,17alpha)-17-{[(cyanomethyl)thio]carbonyl}-9-fluoro-11-hydroxy-3-oxoandrosta-1,4-dien-17-yl 4-(phenylthio)benzoate] returned an EC50 in assay [1] of 37.3 nM. Further, in assay [2], the IC50 is 0.231 nM.
For `C[C@]12C=CC(=O)C=C1CC[C@H]1[C@@H]3CC[C@](OC(=O)c4ccc(Oc5ccccc5)cc4)(C(=O)SCC#N)[C@@]3(C)C[C@H](O)[C@@]12F` [Example 29, (11beta,17alpha)-17-{[(cyanomethyl)-thio]carbonyl}-9-fluoro-11-hydroxy-3-oxoandrosta-1,4-dien-17-yl 4-phenoxybenzoate] the same measures were 78.4 nM and 0.156 nM.
For the compound `C[C@]12C=CC(=O)C=C1CC[C@H]1[C@@H]3CC[C@](OC(=O)c4ccc(Sc5ccccc5)cc4)(C(=O)SCCl)[C@@]3(C)C[C@H](O)[C@@]12F` [Example 30, (11beta,17alpha)-17-{[(chloromethyl)thio]carbonyl}-9-fluoro-11-hydroxy-3-oxoandrosta-1,4-dien-17-yl 4-(phenylthio)benzoate], the EC50 in assay [1] turned out to be 20.6 nM. In addition, the half-inhibitory concentration (IC50) in assay [2] was 0.256 nM.
